# Test results: patent publication US20250282799A1, “SUBSTITUTED PYRIDO[4,3-d]PYRIMIDINES AS KRAS MODULATORS” (Alterome Therapeutics, Inc., priority 2023, published 2025)
# Assays:
# [1] = biological target: KRAS (G12D)/CRAF (Homo sapiens (Human), UniProt P01116, G12D); test: TR-FRET biochemical KRAS:CRAF protein:protein interaction assay, KRAS (G12D); type: binding; settings: GMPPNP loaded Biotin-KRAS (G12D), FLAG CRAF RBD; read-out: TR-Fret_PPI KRAS (G12D)/CRAF IC50
# In short: (§1)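 Compound (10-point 3-fold series, 1% DMSO final) preincubated 30 min at room temperature with 20 nM biotin-KRAS mutant loaded with GMPPNP, in Hepes pH7.3 buffer with 5 mM MgCl2 and 10 uM GMP-PNP. Then 100 nM FLAG-CRAF RBD for 150 min, 1 nM Tb-anti-FLAG/5 nM SA-XL665 for 90 min; IC50 from normalized 665/620 ratio, 4-parameter fit.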
# [2] = biological target: KRAS (G12V)/CRAF (Homo sapiens (Human), UniProt P01116, G12V); test: TR-FRET biochemical KRAS:CRAF protein:protein interaction assay, KRAS (G12V); type: binding; settings: GMPPNP loaded Biotin-KRAS (G12V), FLAG CRAF RBD; read-out: TR-Fret_PPI KRAS (G12V)/CRAF IC50
# Chain of KRAS (G12V)/CRAF (P01116-2 other isoform, or with tags, fused parts or gaps G12V): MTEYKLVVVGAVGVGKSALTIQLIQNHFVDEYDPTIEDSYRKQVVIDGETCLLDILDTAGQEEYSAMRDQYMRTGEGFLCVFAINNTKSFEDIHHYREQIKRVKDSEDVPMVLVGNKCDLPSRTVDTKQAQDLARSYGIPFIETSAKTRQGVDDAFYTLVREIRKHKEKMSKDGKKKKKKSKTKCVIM
# In short: as §1
# [3] = Pharmacokinetic evaluation, single dosing (oral and intravenous) in rats; type: in vivo, male Sprague-Dawley rats; parameters: unit not given here; settings: rat, plasma
# Description: Pharmacokinetic profile for test compound was measured by single dosing in male Sprague-Dawley rats. Animal weights were typically over 200 grams, and animals were allowed to acclimate to their new environment for at least 3 days prior to the initiation of any studies. One set of animals was dosed intravenous with test compound, 2 mg/kg in 20% PEG400, 10% HS-15 Solutol, 70% 50 mM citrate buffer (pH 4.0). Intravenous dosing solution concentration was 1.0 mg/mL. Time of blood sampling was 5 minutes, 15 minutes, 30 minutes, 1 hour, 2 hours, 4 hours, 8 hours, and 24 hours following intravenous dosing. Another set of animals was dosed orally with test compound, 30 mg/kg in 20% PEG400, 10% HS-15 Solutol, 70% 50 mM citrate buffer (pH 4.0). Oral dosing solution concentration was 3.0 mg/mL. Time of blood sampling was 15 minutes, 30 minutes, 1 hour, 2 hours, 4 hours, 8 hours, and 24 hours following oral dosing. Blood samples (˜0.2 mL/sample) were collected via jugular vein and placed in tubes containing Heparin-Na. The blood samples in tubes were mixed and then placed on wet ice prior to centrifugation for plasma. The blood samples were centrifuged at 4000 g for 5 minutes at 4° C. to obtain plasma. The obtained plasma was separated and stored frozen at approximately −80° C.
# All the plasma samples were analyzed using a Shimadzu (DGU-405) HPLC with an API 6500+MS/MS system following the manufacturer's instructions. All the analytes were detected with positive-mode electrospray ionization (ES+). A standard curve for each test compound was generated and used to measure test compound concentrations in the rat plasma samples. Based on the time course sampling, an area under the curve (AUC) was calculated for the oral group and intravenous group. The percentage of rat bioavailability is calculated based on the equation shown below.
# where F is bioavailability, AUCPO is area under curve of oral dosing, AUCIV is area under curve of intravenous dosing, DoseIV is the intravenous dose and DosePO is the oral dose. The oral dosing for the experiments presented in Table 5 was performed at 10 mg/kg unless noted otherwise.
# Chain of KRAS (G12D)/CRAF (P01116-2 other isoform, or with tags, fused parts or gaps G12D): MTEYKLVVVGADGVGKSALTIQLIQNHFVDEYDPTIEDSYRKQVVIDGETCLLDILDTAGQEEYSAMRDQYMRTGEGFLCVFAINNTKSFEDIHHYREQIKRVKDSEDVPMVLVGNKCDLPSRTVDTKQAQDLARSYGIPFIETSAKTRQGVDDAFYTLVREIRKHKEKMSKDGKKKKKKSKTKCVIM
smiles,measurement,setting,value
"[2H]C([2H])(Oc1nc(N2CCOC[C@H]3[C@H](F)[C@H]32)c2cnc(-c3cc(N)cc4cc(F)c(F)c(C#C)c34)c(F)c2n1)[C@@]12CCCN1C[C@H](F)C2 [Example 28, 5-Ethynyl-6,7-difluoro-4-(8-fluoro-4-((1S,7S,8S)-8-fluoro-5-oxa-2-azabicyclo[5.1.0]octan-2-yl)-2-(((2R,7aS)-2-fluorotetrahydro-1H-pyrrolizin-7a(5H)-yl)methoxy-d2)pyrido[4,3-d]pyrimidin-7-yl)naphthalen-2-amine]",IC50,[1],11.6 nM
same,IC50,[2],89.7 nM
same,IV (dose 2 mg/kg) (AUC/D) (h*mg/mL),[3],993
same,PO (dose 10 mg/kg) (AUC/D) (h*mg/mL),[3]; oral,141
"[2H]C([2H])(Oc1nc(N2CCCC[C@H]3[C@H](F)[C@H]32)c2cnc(-c3cc(N)cc4cc(F)c(F)c(C#C)c34)c(F)c2n1)[C@@]12CCCN1C[C@H](F)C2 [Example 16, 5-Ethynyl-6,7-difluoro-4-(8-fluoro-4-((1S,7R,8S)-8-fluoro-2-azabicyclo[5.1.0]octan-2-yl)-2-(((2R,7aS)-2-fluorotetrahydro-1H-pyrrolizin-7a(5H)-yl)methoxy-d2)pyrido[4,3-d]pyrimidin-7-yl)naphthalen-2-amine]",IC50,[1],9.98 nM
same,IC50,[2],56.7 nM
same,IV (dose 2 mg/kg) (AUC/D) (h*mg/mL),[3],718
same,PO (dose 10 mg/kg) (AUC/D) (h*mg/mL),[3]; oral,75
"[2H]C([2H])(Oc1nc(N2CCCC[C@H]3[C@H](F)[C@H]32)c2cnc(-c3cc(N)cc4ccc(F)c(C#C)c34)c(F)c2n1)[C@@]12CCCN1C[C@H](F)C2 [Example 82, 5-Ethynyl-6-fluoro-4-(8-fluoro-4-((1S,7R,8S)-8-fluoro-2-azabicyclo[5.1.0]octan-2-yl)-2-(((2R,7aS)-2-fluorotetrahydro-1H-pyrrolizin-7a(5H)-yl)methoxy-d2)pyrido[4,3-d]pyrimidin-7-yl)naphthalen-2-amine]",IC50,[1],8.11 nM
same,IC50,[2],39.2 nM
same,IV (dose 2 mg/kg) (AUC/D) (h*mg/mL),[3],490
same,PO (dose 10 mg/kg) (AUC/D) (h*mg/mL),[3]; oral,115
"[2H]C([2H])(Oc1nc(N2CCOC[C@H]3[C@H](F)[C@H]32)c2cnc(-c3cc(N)cc4ccc(F)c(C#C)c34)c(F)c2n1)[C@@]12CCCN1C[C@H](F)C2 [Example 87, 5-Ethynyl-6-fluoro-4-(8-fluoro-4-((1S,7S,8S)-8-fluoro-5-oxa-2-azabicyclo[5.1.0]octan-2-yl)-2-(((2R,7aS)-2-fluorotetrahydro-1H-pyrrolizin-7a(5H)-yl)methoxy-d2)pyrido[4,3-d]pyrimidin-7-yl)naphthalen-2-amine]",IC50,[1],9.92 nM
same,IC50,[2],60 nM
same,IV (dose 2 mg/kg) (AUC/D) (h*mg/mL),[3],494
same,"PO (AUC/D) (h*mg/mL), dose 30 mg/kg","[3]; oral, dose 30 mg/kg",122
